Assay results as given in ChEMBL document CHEMBL1201862, “PubChem BioAssay data set” (2004).
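In this assay, cells in 96-well plates receive the compound at five concentrations for 48 hours. Endpoints are linearly interpolated between the surrounding concentrations. Here, GI50 denotes the concentration required for 50% inhibition of growth.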 Activity calls are given as the source filed them. No stated cut-off is given here; in the data, active = GI50 up to about 1.1 µM and inactive = higher.

How the values were obtained:
Assay in all cases: DTP human tumour cell line panel, 48 h
UACC-257 = system: UACC-257
RPMI-8226 = system: RPMI-8226
EKVX = system: EKVX
NCI-H522 = system: NCI-H522
A498 = system: A498
MOLT-4 = system: MOLT-4
HOP-92 = system: HOP-92
SF-268 = system: SF-268
U-251 = system: U-251
RXF 393 = system: RXF 393
SN12C = system: SN12C
SNB-19 = system: SNB-19
SK-MEL-28 = system: SK-MEL-28
HL-60 = system: HL-60
SK-OV-3 = system: SK-OV-3
UO-31 = system: UO-31
NCI-H226 = system: NCI-H226
SF-539 = system: SF-539
HCT-116 = system: HCT-116
HT-29 = system: HT-29

Structure (SMILES)	GI50 (UACC-257)	GI50 (RPMI-8226)	GI50 (EKVX)	GI50 (NCI-H522)	GI50 (A498)	GI50 (MOLT-4)	GI50 (HOP-92)	GI50 (SF-268)	GI50 (U-251)	GI50 (RXF 393)	GI50 (SN12C)	GI50 (SNB-19)	GI50 (SK-MEL-28)	GI50 (HL-60)	GI50 (SK-OV-3)	GI50 (UO-31)	GI50 (NCI-H226)	GI50 (SF-539)	GI50 (HCT-116)	GI50 (HT-29)
O=C(Nc1cccc(O)c1)C(=O)C1C(=O)NC(=S)NC1=O	> 100 µM (inactive)	> 100 µM (inactive)	> 100 µM (inactive)	> 100 µM (inactive)	> 100 µM (inactive)	> 100 µM (inactive)	> 100 µM (inactive)	> 100 µM (inactive)	> 100 µM (inactive)	> 100 µM (inactive)	> 100 µM (inactive)	> 100 µM (inactive)	> 100 µM (inactive)	> 100 µM (inactive)	> 100 µM (inactive)	> 100 µM (inactive)	> 100 µM (inactive)	> 100 µM (inactive)	> 100 µM (inactive)	> 100 µM (inactive)
NS(=O)(=O)c1ccc(NC(=O)C2C(=O)C(=O)N(c3ccc(S(N)(=O)=O)cc3)C2=O)cc1 (stereo not given)	> 100 µM (inactive)	> 100 µM (inactive)	> 100 µM (inactive)	> 100 µM (inactive)	> 100 µM (inactive)	> 100 µM (inactive)	> 100 µM (inactive)	> 100 µM (inactive)	> 100 µM (inactive)	> 100 µM (inactive)	> 100 µM (inactive)	> 100 µM (inactive)	> 100 µM (inactive)	> 10 µM (inactive)	> 100 µM (inactive)	> 100 µM (inactive)	> 100 µM (inactive)	> 100 µM (inactive)	> 100 µM (inactive)	> 100 µM (inactive)
CN(C)/N=C1\CC(c2ccccc2)C(C#N)(C#N)C1(C#N)C#N (stereo not given)	18.6 µM (inactive)	11.8 µM (inactive)	41.6 µM (inactive)	12.2 µM (inactive)	18.2 µM (inactive)	4.53 µM (inactive)	14.8 µM (inactive)	20.1 µM (inactive)	35.3 µM (inactive)	26.5 µM (inactive)	20.8 µM (inactive)	24.5 µM (inactive)	19.2 µM (inactive)	2.5 µM (inactive)	50.1 µM (inactive)	18.6 µM (inactive)	23.8 µM (inactive)	41.4 µM (inactive)	17.8 µM (inactive)	26.1 µM (inactive)
CC(=O)c1ccc(NC(=O)/C(=N\NC(N)=O)C(C#N)CC(C)(C)C=O)cc1 (stereo not given)	> 100 µM (inactive)	> 100 µM (inactive)	> 100 µM (inactive)	> 100 µM (inactive)	> 100 µM (inactive)	> 100 µM (inactive)	> 100 µM (inactive)	> 100 µM (inactive)	> 100 µM (inactive)	> 100 µM (inactive)	> 100 µM (inactive)	> 100 µM (inactive)	> 100 µM (inactive)	> 100 µM (inactive)	> 100 µM (inactive)	> 100 µM (inactive)	> 100 µM (inactive)	> 100 µM (inactive)	> 100 µM (inactive)	> 100 µM (inactive)
Cc1ccccc1CN1CC2=C(CCN(Cc3ccccc3)C2=O)N2CCN=C12	3.5 µM (inactive)	1.55 µM (inactive)	6.32 µM (inactive)	3.73 µM (inactive)	13.1 µM (inactive)	9.66 µM (inactive)	21.6 µM (inactive)	6.87 µM (inactive)	4.8 µM (inactive)	54 µM (inactive)	5.6 µM (inactive)	6.79 µM (inactive)	29.2 µM (inactive)	3.78 µM (inactive)	7.78 µM (inactive)	6.81 µM (inactive)	3.56 µM (inactive)	52.4 µM (inactive)	4.06 µM (inactive)	5.31 µM (inactive)
COC(=O)C(C/C=C(\C)c1ccccc1)C(C)=O (stereo not given)	> 48.3 µM (inactive)	27.2 µM (inactive)	> 100 µM (inactive)	76.7 µM (inactive)	> 100 µM (inactive)	16.4 µM (inactive)	17.1 µM (inactive)	97.3 µM (inactive)	57.5 µM (inactive)	> 100 µM (inactive)	> 100 µM (inactive)	> 100 µM (inactive)	> 100 µM (inactive)	21.4 µM (inactive)	> 100 µM (inactive)	33.2 µM (inactive)	> 72.6 µM (inactive)	> 100 µM (inactive)	57.1 µM (inactive)	83.9 µM (inactive)
[O-]/[N+](=N/c1ncc(-c2ccccc2)cn1)c1ncc(-c2ccccc2)cn1	> 100 µM (inactive)	> 64.6 µM (inactive)	63.5 µM (inactive)	14.8 µM (inactive)	> 100 µM (inactive)	> 64.6 µM (inactive)	69 µM (inactive)	> 84.7 µM (inactive)	44.1 µM (inactive)	60.5 µM (inactive)	> 100 µM (inactive)	> 58.3 µM (inactive)	> 61.9 µM (inactive)	39.1 µM (inactive)	> 100 µM (inactive)	> 66.1 µM (inactive)	> 94.8 µM (inactive)	> 65.2 µM (inactive)	31.6 µM (inactive)	> 78 µM (inactive)
CC1C=CN(N(C)C)C2=C1C(=O)c1cnccc1C2=O (stereo not given)	0.212 µM (active)	0.531 µM (active)	0.59 µM (active)	0.17 µM (active)	1.29 µM (inactive)	1.76 µM (inactive)	2.07 µM (inactive)	0.975 µM (active)	0.417 µM (active)	0.408 µM (active)	0.168 µM (active)	0.832 µM (active)	0.453 µM (active)	1.47 µM (inactive)	0.682 µM (active)	0.167 µM (active)	0.508 µM (active)	0.293 µM (active)	0.306 µM (active)	0.617 µM (active)
COc1ccc(C(=O)N=C2N(c3ccccc3)C(=N/c3ccccc3)/C(=N\c3ccccc3)N2c2ccccc2)cc1	48.2 µM (inactive)	> 74.6 µM (inactive)	48.8 µM (inactive)	30.7 µM (inactive)	19.2 µM (inactive)	> 100 µM (inactive)	2.9 µM (inactive)	65.8 µM (inactive)	19.1 µM (inactive)	2.26 µM (inactive)	> 67.1 µM (inactive)	19.2 µM (inactive)	18.3 µM (inactive)	> 100 µM (inactive)	33.7 µM (inactive)	> 100 µM (inactive)	29.9 µM (inactive)	35 µM (inactive)	36.1 µM (inactive)	> 95.3 µM (inactive)
Clc1ccc(Cc2nc3cc(Cl)c(Cl)cc3n2CC2CCCN3CCCCC23)cc1 (stereo not given)	3.81 µM (inactive)	24.5 µM (inactive)	10.3 µM (inactive)	12.2 µM (inactive)	14.4 µM (inactive)	4.22 µM (inactive)	12.2 µM (inactive)	8.17 µM (inactive)	8.11 µM (inactive)	13.8 µM (inactive)	12.3 µM (inactive)	13.9 µM (inactive)	6.93 µM (inactive)	5.55 µM (inactive)	16.9 µM (inactive)	0.285 µM (active)	17.3 µM (inactive)	10.4 µM (inactive)	9.68 µM (inactive)	3.33 µM (inactive)
